Measured values published in patent publication US20250179059A1 (The Regents of the University of California, priority 2021, published 2025).
Like-named read-outs stand apart in the source and are kept apart here.

Molecular target: T1, human BRD4 bromodomain II (Homo sapiens, UniProt O60885)
T1 construct: human BRD4 bromodomain II [based on Genbank NM_058243, residues 349-460]; host or cells: E. coli
Test: Bromodomain binding assay (AlphaScreen), BRD4 BDII
Conditions: Table C2
Protocol: Bromodomain Binding Assay
The bromodomain binding assay utilizes AlphaScreen technology. Compounds compete with a biotinylated peptide ligand (from histone H4: aa 1-21, K5/K8/K12/K16Ac-biotin) for binding to a hexahistidine (His6)-tagged bromodomain. Peptide binding is detected by fluorescence signal after singlet oxygen energy transfer from peptide-bound AlphaScreen streptavidin-coated donor beads to His6-tagged bromodomain-bound nickel-chelate acceptor beads (PerkinElmer). Briefly, 8 μL 2.5× bromodomain (E. coli expressed, N-terminal His6-tagged human BRD4 bromodomain II [based on Genbank NM_058243, residues 349-460] or N-terminal His6-tagged human BRD4 bromodomain I [residues 44-170]) in reaction buffer (50 mM HEPES [pH 7.5], 100 mM NaCl, 0.05% CHAPS, 0.1% BSA, 1% DMSO) is added to wells of an assay plate (384-well low flange white, flat bottom, polystyrene microplate, Corning #3572; buffer only is added to some wells as a negative control). A compound concentration series (10 concentrations, 3-fold serial dilutions previously prepared in 100% DMSO, or 100% DMSO only negative control) is delivered to the assay plate with an Echo 550 acoustic liquid handler (Labcyte), followed by plate centrifugation and incubation for 30 minutes at room temperature. Then 4 μL 5× biotinylated peptide ligand is added, followed by plate centrifugation and gentle shaking for 30 minutes at room temperature to mix. After this incubation, 4 μL 5× donor beads are added, and the plate is centrifuged, followed by brief gentle shaking to mix. Finally, 4 μL 5× acceptor beads are added, and the plate is centrifuged, followed by gentle shaking for 60 minutes at room temperature in the dark. AlphaScreen signal (excitation/emission: 680 nm/520-620 nm) is detected with an EnSpire multimode plate reader (PerkinElmer). Percentage peptide binding is plotted as a function of concentration, and curve fitting is used to determine competitive compound binding ICsos.

[1] = AlphaScreen assay, read-out: BRD4 BDII IC50

| IC50 [1] | Structure (SMILES) | IC50 (BRD4 BDII IC50, AlphaScreen assay) |
| --- | --- | --- |
| > 0.1 µM | CC(=O)Nc1ccc(-c2cccc(-c3ccc4c(c3)OCCCN4C(C)=O)c2O)cc1F [Example 104, N-(3′-(5-Acetyl-2,3,4,5-tetrahydrobenzo[b][1,4]oxazepin-8-yl)-3-fluoro-2′-hydroxy-[1,1′-biphenyl]-4-yl)acetamide] |  |
| > 0.1 µM | CNC(=O)Nc1ccc(-c2cccc(-c3cc(N4CCNCC4)no3)c2O)cc1 [Example 149, 1-(2′-hydroxy-3′-(3-(piperazin-1-yl)isoxazol-5-yl)-[1,1′-biphenyl]-4-yl)-3-methylurea] |  |
| 0.001 to 0.01 µM | CC(=O)Nc1ccc(-c2cccc(-c3cccc(N4CC5(CCNC5)CC4=O)c3)c2O)cc1F (stereo not drawn) [Example 194, N-(3-fluoro-2′-hydroxy-3″-(3-oxo-2,7-diazaspiro[4.4]nonan-2-yl)-[1,1′:3′,1″-terphenyl]-4-yl)acetamide] |  |
| > 0.1 µM | CC(=O)Nc1ccc(-c2cccc(-c3cccc(N4CCNCC4=O)c3)c2O)cc1F [Example 191, N-(3-fluoro-2′-hydroxy-3″-(2-oxopiperazin-1-yl)-[1,1′:3′,1″-terphenyl]-4-yl)acetamide] |  |
| 0.01 to 0.1 µM | CC(=O)Nc1ccc(-c2cccc(-c3cccc(N4C[C@@H]5CC[C@H]4CN5)c3)c2O)cc1F [Example 183, N-(3″-((1S,4S)-2,5-diazabicyclo[2.2.2]octan-2-yl)-3-fluoro-2′-hydroxy-[1,1′:3′,1″-terphenyl]-4-yl)acetamide] |  |
| > 0.1 µM | CC(=O)Nc1ccc(-c2cccc(-c3csc(N4CCNCC4)n3)c2O)cc1F [Example 212, N-(3-Fluoro-2′-hydroxy-3′-(2-(piperazin-1-yl)thiazol-4-yl)-[1,1′-biphenyl]-4-yl)acetamide] |  |
| > 0.1 µM | CC(=O)Nc1ccc(-c2cccc(-c3ccc4c(c3)OCCN4C)c2O)cc1F [Example 144, N-(3-fluoro-2′-hydroxy-3′-(4-methyl-3,4-dihydro-2H-benzo[b][1,4]oxazin-7-yl)-[1,1′-biphenyl]-4-yl)acetamide] |  |
| > 0.1 µM | CCc1ccc(-c2cccc(-c3ccc(NC(C)=O)c(F)c3)c2O)cc1 [Example 82, N-(4″-Ethyl-3-fluoro-2′-hydroxy-[1,1′:3′,1″-terphenyl]-4-yl)acetamide] |  |
| > 0.1 µM | CC(=O)Nc1ccc(-c2cccc(-c3ccc4[nH]ccc4c3)c2O)cc1F [Example 123, N-(3-Fluoro-2′-hydroxy-3′-(1H-indol-5-yl)-[1,1′-biphenyl]-4-yl)acetamide] |  |
| > 0.1 µM | CC(=O)Nc1ccc(-c2cccc(-c3cc(N4CCNCC4)[nH]n3)c2O)cc1F [Example 162, N-(3-fluoro-2′-hydroxy-3′-(5-(piperazin-1-yl)-1H-pyrazol-3-yl)-[1,1′-biphenyl]-4-yl)acetamide ditrifluoroacetate] |  |
| 0.001 to 0.01 µM | CC(=O)Nc1ccc(-c2cc(F)cc(-c3ccc(F)c(C4=CCNCC4)c3)c2O)cc1F [Example 247, N-(3,4″,5′-trifluoro-2′-hydroxy-3″-(1,2,3,6-tetrahydropyridin-4-yl)-[1,1′:3′,1″-terphenyl]-4-yl)acetamide] |  |
| > 0.1 µM | O=C1CCCN1c1ccc(-c2cccc(-c3ccccc3)c2O)cc1F [Example 188, 1-(3-fluoro-2′-hydroxy-[1,1′:3′,1″-terphenyl]-4-yl)pyrrolidin-2-one] |  |
| > 0.1 µM | CCOc1ccc(-c2cccc(-c3ccc(NC(C)=O)c(F)c3)c2O)cc1 [Example 71, N-(4″-ethoxy-3-fluoro-2′-hydroxy-[1,1′:3′,1″-terphenyl]-4-yl)acetamide] |  |
| 0.01 to 0.1 µM | CC(=O)Nc1ccc(-c2cccc(-c3cccc(N4CCC(N)CC4)c3)c2O)cc1F [Example 159, N-(3″-(4-aminopiperidin-1-yl)-3-fluoro-2′-hydroxy-[1,1′:3′,1″-terphenyl]-4-yl)acetamide 2,2,2-trifluoroacetate] |  |
| 0.01 to 0.1 µM | CC(=O)Nc1ccc(-c2cccc(-c3cccc(N4CC5(CNC5)C4)c3)c2O)cc1F [Example 219, N-(3-fluoro-2′-hydroxy-3″-(2,6-diazaspiro[3.3]heptan-2-yl)-[1,1′:3′,1″-terphenyl]-4-yl)acetamide] |  |
| > 0.1 µM | CC(=O)Nc1ccc(-c2cccc(-c3ccc(NC(C)=O)c(OC4CCCC4)c3)c2O)cc1F [Example 73, N,N′-(3-(Cyclopentyloxy)-3″-fluoro-2′-hydroxy-[1,1′:3′,1″-terphenyl]-4,4″-diyl)diacetamide] |  |
| > 0.1 µM | CC(=O)Nc1ccc(-c2cccc(-c3cnn(-c4ccccc4)c3)c2O)cc1 [Example 14, N-(2′-Hydroxy-3′-(1-phenyl-1H-pyrazol-4-yl)-[1,1′-biphenyl]-4-yl)acetamide] |  |

| IC50 [1] | Structure (SMILES) | IC50 (BRD4 BDII IC50, AlphaScreen assay) |
| --- | --- | --- |
| 0.01 to 0.1 µM | CC(=O)Nc1ccc(-c2cccc(-c3ccc4c(c3)CNC(=O)N4)c2O)cc1F [Example 155, N-(3-fluoro-2′-hydroxy-3′-(2-oxo-1,2,3,4-tetrahydroquinazolin-6-yl)-[1,1′-biphenyl]-4-yl)acetamide] |  |
| 0.001 to 0.01 µM | CC(=O)Nc1ccc(-c2cccc(-c3cc(N4CCNCC4)nc(N4CCNCC4)c3)c2O)cc1F [Example 218, N-(3′-(2,6-di(piperazin-1-yl)pyridin-4-yl)-3-fluoro-2′-hydroxy-[1,1′-biphenyl]-4-yl)acetamide] |  |
| > 0.1 µM | COc1ccc(-c2cccc(-c3ccc(NC(C)=O)c(F)c3)c2O)cc1 [Example 61, N-(3-Fluoro-2′-hydroxy-4″-methoxy-[1,1′:3′,1″-terphenyl]-4-yl)acetamide] |  |
|  | O=C(CF)Nc1ccc(-c2cccc(-c3cc(N4CCNCC4)no3)c2O)cc1 [Example 66, 2-Fluoro-N-(2′-hydroxy-3′-(3-(piperazin-1-yl)isoxazol-5-yl)-[1,1′-biphenyl]-4-yl)acetamide 2,2,2-trifluoroacetate] | > 0.1 µM |
| 0.01 to 0.1 µM | COc1cc(-c2cccc(-c3ccc(NC(C)=O)cc3)c2O)ccc1NC(C)=O [Example 127, N,N′-(2′-Hydroxy-3-methoxy-[1,1′:3′,1″-terphenyl]-4,4″-diyl)diacetamide] |  |
| 0.001 to 0.01 µM | CC(=O)Nc1ccc(-c2cccc(-c3cc(N4CCNCC4)cc(C(F)(F)F)c3)c2O)cc1F [Example 215, N-(3-fluoro-2′-hydroxy-3″-(piperazin-1-yl)-5″-(trifluoromethyl)-[1,1′:3′,1″-terphenyl]-4-yl)acetamide] |  |
| > 0.1 µM | CC(=O)Nc1ccc(-c2cccc(-c3cccc(N4CCC(CN)CC4)c3)c2O)cc1F [Example 186, N-(3″-(4-(aminomethyl)piperidin-1-yl)-3-fluoro-2′-hydroxy-[1,1′:3′,1″-terphenyl]-4-yl)acetamide] |  |
| > 0.1 µM | CC(=O)Nc1ccc(-c2cccc(-c3cc(N4CCNCC4)no3)c2O)cc1C(C)C [Example 27, N-(2′-Hydroxy-3-isopropyl-3′-(3-(piperazin-1-yl)isoxazol-5-yl)-[1,1′-biphenyl]-4-yl)acetamide 2,2,2-trifluoroacetate] |  |
| 0.01 to 0.1 µM | CC(=O)Nc1ccc(-c2cccc(-c3cc(N4CCN(C)CC4)no3)c2O)cc1F [Example 150, N-(3-fluoro-2′-hydroxy-3′-(3-(4-methylpiperazin-1-yl)isoxazol-5-yl)-[1,1′-biphenyl]-4-yl)acetamide] |  |
| > 0.1 µM | CC(=O)Nc1ccc(-c2cccc(-c3ccc(C)cc3)c2O)cc1F [Example 60, N-(3-Fluoro-2′-hydroxy-4″-methyl-[1,1′:3′,1″-terphenyl]-4-yl)acetamide] |  |
| 0.001 to 0.01 µM | O=C1NCCN1c1ccc(-c2cccc(-c3ccnc(N4CCNCC4)c3)c2O)cc1Cl [Example 228, 1-(3-chloro-2′-hydroxy-3′-(2-(piperazin-1-yl)pyridin-4-yl)-[1,1′-biphenyl]-4-yl)imidazolidin-2-one] |  |
| 0.01 to 0.1 µM | CC(=O)Nc1ccc(-c2cccc(-c3cccc(N4CC(CN)C4)c3)c2O)cc1F [Example 220, N-(3″-(3-(aminomethyl)azetidin-1-yl)-3-fluoro-2′-hydroxy-[1,1′:3′,1″-terphenyl]-4-yl)acetamide] |  |
| > 0.1 µM | CC(=O)Nc1ccc(-c2cccc(-c3ccc(C(F)(F)F)cc3)c2O)cc1F [Example 83, N-(3-Fluoro-2′-hydroxy-4″-(trifluoromethyl)-[1,1′:3′,1″-terphenyl]-4-yl)acetamide] |  |
| > 0.1 µM | CC(=O)Nc1ccc(-c2cccc(-c3cc(N4CCN(C(=O)c5ccccc5)CC4)no3)c2O)cc1 [Example 105, N-(3′-(3-(4-Benzoylpiperazin-1-yl)isoxazol-5-yl)-2′-hydroxy-[1,1′-biphenyl]-4-yl)acetamide] |  |
| > 0.1 µM | CC(=O)Nc1ccc(-c2cccc(-c3ccc(C(C)C)cc3)c2O)cc1F [Example 74, N-(3-Fluoro-2′-hydroxy-4″-isopropyl-[1,1′:3′,1″-terphenyl]-4-yl)acetamide] |  |
| 0.01 to 0.1 µM | O=C1CCCCN1c1ccc(-c2cccc(-c3cccc(N4CCNCC4)c3)c2O)cc1F [Example 223, 1-(3-fluoro-2′-hydroxy-3″-(piperazin-1-yl)-[1,1′:3′,1″-terphenyl]-4-yl)piperidin-2-one] |  |
